# Test results from BindingDB's records for patent US11884671 (AstraZeneca, 2024).
# Experiments:
# [1] = biological target: T1, Dual specificity protein kinase TTK (Homo sapiens, UniProt P33981); test: TTK Enzyme Assay
# T1 sequence (P33981 whole entry): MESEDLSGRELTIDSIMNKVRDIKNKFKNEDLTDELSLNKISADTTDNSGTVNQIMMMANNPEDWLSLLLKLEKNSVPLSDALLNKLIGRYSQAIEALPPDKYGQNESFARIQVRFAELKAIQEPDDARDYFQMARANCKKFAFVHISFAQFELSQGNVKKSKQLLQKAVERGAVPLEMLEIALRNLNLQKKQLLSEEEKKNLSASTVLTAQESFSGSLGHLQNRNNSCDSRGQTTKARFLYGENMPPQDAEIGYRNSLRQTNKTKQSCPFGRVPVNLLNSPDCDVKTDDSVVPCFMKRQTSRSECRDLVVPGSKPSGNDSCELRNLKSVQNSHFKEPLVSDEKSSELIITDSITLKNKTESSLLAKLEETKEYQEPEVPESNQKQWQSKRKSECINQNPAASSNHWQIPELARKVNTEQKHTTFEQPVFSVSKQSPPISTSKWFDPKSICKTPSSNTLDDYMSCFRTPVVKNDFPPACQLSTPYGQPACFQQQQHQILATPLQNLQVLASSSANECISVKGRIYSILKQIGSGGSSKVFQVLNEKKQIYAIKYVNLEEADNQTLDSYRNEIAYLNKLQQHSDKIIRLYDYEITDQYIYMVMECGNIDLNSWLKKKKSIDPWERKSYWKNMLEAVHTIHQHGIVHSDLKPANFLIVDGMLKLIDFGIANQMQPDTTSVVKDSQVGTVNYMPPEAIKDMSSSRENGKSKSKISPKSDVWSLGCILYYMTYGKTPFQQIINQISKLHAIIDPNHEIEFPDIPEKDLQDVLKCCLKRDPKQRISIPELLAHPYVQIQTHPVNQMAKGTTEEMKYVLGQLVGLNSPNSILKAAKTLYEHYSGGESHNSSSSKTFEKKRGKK
# Protocol: The inhibitory activity of compounds against TTK was determined in a LanthaScreen Eu Kinase Binding assay run by ThermoFisher Scientific as part of their SelectScreen Biochemical Kinase Profiling Service. The LanthaScreen Eu Kinase Binding assay format uses binding of an Alexa Fluor conjugate or tracer to a kinase, which is detected by addition of a Eu-labeled anti-tag antibody. […] Plates were then read using a fluorescence plate reader.
# [2] = biological target: Tyrosine-protein kinase JAK1 (Homo sapiens, UniProt P23458); test: Enzyme Assay
# Tyrosine-protein kinase JAK1, sequence (P23458 whole entry): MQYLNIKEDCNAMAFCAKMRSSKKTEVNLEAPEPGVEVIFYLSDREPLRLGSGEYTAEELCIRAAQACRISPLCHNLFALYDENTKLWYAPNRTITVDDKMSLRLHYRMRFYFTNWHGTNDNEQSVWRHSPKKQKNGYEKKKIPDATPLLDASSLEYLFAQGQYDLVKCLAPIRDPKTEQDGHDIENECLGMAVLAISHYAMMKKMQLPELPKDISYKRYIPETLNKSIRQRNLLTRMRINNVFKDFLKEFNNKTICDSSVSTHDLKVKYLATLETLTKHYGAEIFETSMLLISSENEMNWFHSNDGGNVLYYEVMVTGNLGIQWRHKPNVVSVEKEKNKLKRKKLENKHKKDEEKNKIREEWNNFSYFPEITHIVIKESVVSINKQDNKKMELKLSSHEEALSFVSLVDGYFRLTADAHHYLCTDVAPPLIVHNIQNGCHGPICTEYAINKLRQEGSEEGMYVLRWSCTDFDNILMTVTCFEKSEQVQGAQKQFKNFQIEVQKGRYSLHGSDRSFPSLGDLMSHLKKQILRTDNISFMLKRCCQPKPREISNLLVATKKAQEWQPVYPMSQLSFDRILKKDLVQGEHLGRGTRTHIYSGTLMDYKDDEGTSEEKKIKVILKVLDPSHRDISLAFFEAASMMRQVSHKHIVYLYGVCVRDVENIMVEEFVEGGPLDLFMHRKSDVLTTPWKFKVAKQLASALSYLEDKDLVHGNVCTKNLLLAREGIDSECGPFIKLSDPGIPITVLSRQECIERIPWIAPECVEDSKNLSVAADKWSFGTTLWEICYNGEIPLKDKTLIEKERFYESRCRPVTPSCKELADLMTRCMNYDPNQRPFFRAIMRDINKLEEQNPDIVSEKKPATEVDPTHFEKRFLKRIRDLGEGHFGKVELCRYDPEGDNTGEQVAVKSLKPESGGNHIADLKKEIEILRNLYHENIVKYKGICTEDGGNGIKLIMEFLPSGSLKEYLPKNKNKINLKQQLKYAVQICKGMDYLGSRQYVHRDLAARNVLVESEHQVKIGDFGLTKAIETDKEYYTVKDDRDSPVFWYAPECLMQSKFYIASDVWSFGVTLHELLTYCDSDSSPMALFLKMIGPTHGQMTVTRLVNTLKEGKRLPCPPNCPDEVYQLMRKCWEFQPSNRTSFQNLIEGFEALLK
# Protocol: JAK1: The 2×JAK/Tyr 06 (ThermoFisher Scientific proprietary) mixture was prepared in 50 mM HEPES pH 6.5, 0.01% BRIJ-35, 10 mM MgCl2, 1 mM EGTA, 0.02% NaN3.
# [3] = biological target: Tyrosine-protein kinase JAK2 (Homo sapiens, UniProt O60674); test: Enzyme Assay
# Tyrosine-protein kinase JAK2, sequence (O60674 whole entry): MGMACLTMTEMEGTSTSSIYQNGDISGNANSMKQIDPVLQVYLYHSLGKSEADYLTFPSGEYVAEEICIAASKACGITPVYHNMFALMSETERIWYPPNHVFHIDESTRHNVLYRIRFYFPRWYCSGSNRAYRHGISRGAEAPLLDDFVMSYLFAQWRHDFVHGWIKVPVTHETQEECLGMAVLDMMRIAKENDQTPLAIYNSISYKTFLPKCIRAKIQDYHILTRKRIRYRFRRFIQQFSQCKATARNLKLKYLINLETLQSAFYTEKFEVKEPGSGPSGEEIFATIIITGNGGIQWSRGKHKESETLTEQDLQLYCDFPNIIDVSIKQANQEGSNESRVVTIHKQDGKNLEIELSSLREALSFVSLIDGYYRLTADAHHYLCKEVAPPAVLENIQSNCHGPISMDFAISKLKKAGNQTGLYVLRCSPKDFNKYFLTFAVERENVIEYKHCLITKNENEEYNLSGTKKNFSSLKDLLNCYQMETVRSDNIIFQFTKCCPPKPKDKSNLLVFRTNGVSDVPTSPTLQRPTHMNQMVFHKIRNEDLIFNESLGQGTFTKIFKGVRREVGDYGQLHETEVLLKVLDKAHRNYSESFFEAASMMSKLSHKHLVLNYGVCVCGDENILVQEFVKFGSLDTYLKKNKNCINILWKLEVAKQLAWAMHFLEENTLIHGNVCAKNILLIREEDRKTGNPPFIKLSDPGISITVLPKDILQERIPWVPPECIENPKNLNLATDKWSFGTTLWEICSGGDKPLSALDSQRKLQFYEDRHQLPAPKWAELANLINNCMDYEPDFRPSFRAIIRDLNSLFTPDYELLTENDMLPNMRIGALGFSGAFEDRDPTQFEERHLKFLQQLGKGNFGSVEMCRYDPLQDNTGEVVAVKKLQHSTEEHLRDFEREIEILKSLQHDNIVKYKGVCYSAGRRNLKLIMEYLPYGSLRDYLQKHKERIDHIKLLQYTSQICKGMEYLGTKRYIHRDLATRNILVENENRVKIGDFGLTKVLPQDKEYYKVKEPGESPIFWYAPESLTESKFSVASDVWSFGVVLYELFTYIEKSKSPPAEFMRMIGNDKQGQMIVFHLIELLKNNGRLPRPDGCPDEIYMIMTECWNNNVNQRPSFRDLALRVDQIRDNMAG
# Protocol: JAK2: The 2×JAK2/Tyr 06 (ThermoFisher Scientific proprietary) mixture was prepared in 50 mM HEPES pH 7.5, 0.01% BRIJ-35, 10 mM MgCl2, 1 mM EGTA.
# [4] = biological target: T2, Tyrosine-protein kinase JAK3 (Homo sapiens, UniProt P52333); test: Enzyme Assay
# T2 sequence (P52333 whole entry): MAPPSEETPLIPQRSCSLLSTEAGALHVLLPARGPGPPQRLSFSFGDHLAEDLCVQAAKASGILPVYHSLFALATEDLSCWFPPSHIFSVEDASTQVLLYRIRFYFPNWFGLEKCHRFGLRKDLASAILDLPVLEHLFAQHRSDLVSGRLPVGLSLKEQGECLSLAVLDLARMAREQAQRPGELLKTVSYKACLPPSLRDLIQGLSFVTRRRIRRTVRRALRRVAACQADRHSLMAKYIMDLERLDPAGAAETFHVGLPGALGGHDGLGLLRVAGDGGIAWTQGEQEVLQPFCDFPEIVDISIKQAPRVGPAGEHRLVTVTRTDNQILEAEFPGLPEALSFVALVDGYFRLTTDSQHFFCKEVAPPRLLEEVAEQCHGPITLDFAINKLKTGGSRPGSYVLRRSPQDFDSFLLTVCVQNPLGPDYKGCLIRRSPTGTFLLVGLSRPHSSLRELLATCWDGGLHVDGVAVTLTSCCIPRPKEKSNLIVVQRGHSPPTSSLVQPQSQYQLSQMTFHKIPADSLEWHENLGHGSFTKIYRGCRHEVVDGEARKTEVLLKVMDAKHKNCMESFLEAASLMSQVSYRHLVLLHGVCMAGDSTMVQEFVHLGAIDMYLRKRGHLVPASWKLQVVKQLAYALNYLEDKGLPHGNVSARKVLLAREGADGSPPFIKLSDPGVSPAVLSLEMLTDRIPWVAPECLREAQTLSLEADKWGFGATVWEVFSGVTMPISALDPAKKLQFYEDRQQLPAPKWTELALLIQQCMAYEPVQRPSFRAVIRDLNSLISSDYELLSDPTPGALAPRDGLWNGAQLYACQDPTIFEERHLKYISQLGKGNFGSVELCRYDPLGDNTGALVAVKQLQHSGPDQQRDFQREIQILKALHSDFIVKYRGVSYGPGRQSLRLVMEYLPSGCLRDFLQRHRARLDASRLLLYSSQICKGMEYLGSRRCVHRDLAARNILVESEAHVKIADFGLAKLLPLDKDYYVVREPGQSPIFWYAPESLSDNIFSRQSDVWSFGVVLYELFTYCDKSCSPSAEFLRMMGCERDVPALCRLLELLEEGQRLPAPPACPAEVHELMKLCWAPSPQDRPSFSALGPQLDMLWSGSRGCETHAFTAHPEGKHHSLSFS
# Protocol: JAK3: The 2×JAK3/Tyr 06 (ThermoFisher Scientific proprietary) mixture was prepared in 50 mM HEPES pH 7.5. 0.01% BRIJ-35, 10 mM MgCl2, 1 mM EGTA.
# Aurora kinase B = Aurora kinase B (Homo sapiens, UniProt Q96GD4); test: Enzyme Assay
# Aurora kinase B, sequence (Q96GD4 whole entry): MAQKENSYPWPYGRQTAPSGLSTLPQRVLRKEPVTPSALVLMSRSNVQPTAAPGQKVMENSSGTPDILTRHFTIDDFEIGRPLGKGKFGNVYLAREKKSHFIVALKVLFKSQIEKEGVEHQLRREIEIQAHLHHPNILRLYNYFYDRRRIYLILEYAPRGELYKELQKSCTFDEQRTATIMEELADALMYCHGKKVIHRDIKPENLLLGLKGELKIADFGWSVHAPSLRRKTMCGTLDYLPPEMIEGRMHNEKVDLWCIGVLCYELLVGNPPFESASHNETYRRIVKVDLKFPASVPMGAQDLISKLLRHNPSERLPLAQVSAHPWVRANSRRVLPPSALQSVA
# Protocol: Aurora B (AurB): The 2×AURKB (Aurora B)/Ser/Thr 01 (ThermoFisher Scientific proprietary) mixture was prepared in 50 mM HEPES pH 7.5, 0.01% BRIJ-35, 10 mM MgCl2, 1 mM EGTA.
# Aurora kinase A = biological target: T3, Aurora kinase A (Homo sapiens, UniProt O14965)
# T3 sequence (O14965 whole entry): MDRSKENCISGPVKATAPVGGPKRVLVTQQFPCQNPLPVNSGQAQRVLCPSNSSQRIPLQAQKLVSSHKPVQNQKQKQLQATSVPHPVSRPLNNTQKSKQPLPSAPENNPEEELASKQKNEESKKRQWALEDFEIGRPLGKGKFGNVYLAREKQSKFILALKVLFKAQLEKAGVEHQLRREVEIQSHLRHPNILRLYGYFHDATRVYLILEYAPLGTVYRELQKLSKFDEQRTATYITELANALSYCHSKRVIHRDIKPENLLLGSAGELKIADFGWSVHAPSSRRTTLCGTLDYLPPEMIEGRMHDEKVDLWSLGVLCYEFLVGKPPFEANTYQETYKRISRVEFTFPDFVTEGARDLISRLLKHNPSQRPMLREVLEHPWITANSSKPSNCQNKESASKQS
smiles,measurement,setting,value
"Cc1cc2ncccc2cc1Nc1ncc2c(n1)n([C@H]1CC[C@](C)(O)CC1)c(=O)n2C [US11884671, Example 15]",IC50,[1],0.251 µM
same,IC50,[2],> 10 µM
same,IC50,[3],> 10 µM
same,IC50,[4],> 10 µM
same,IC50,Aurora kinase B,> 10 µM
same,IC50,Aurora kinase A,> 10 µM
"Cc1cc2ncccc2cc1Nc1ncc2c(n1)n([C@H]1CC[C@@](C)(O)CC1)c(=O)n2C [US11884671, Example 14]",IC50,[1],0.1 µM
same,IC50,[2],> 10 µM
same,IC50,[3],> 10 µM
same,IC50,[4],> 10 µM
same,IC50,Aurora kinase B,> 10 µM
same,IC50,Aurora kinase A,> 10 µM
"Cc1cc2nnccc2cc1Nc1ncc2c(n1)n([C@H]1CC[C@](C)(O)CC1)c(=O)n2C [US11884671, Example 17]",IC50,[1],0.316 µM
same,IC50,[2],> 10 µM
same,IC50,[3],> 10 µM
same,IC50,[4],> 10 µM
same,IC50,Aurora kinase B,> 10 µM
same,IC50,Aurora kinase A,> 10 µM
"Cc1cc2nnccc2cc1Nc1ncc2c(n1)n([C@H]1CC[C@@](C)(O)CC1)c(=O)n2C [US11884671, Example 16]",IC50,[1],0.2 µM
same,IC50,[2],> 10 µM
same,IC50,[3],> 10 µM
same,IC50,[4],> 10 µM
same,IC50,Aurora kinase B,> 10 µM
same,IC50,Aurora kinase A,> 10 µM
